From patent US12576127B2, “Fibroblast binding agents and use thereof” (Orionis Biosciences, Inc., priority 2018, dated 2026)

System: B16BL6 cells
Test: B16BL6 tumor model (Example 8)
Assay type: in vivo, mouse
Conditions: p.l. days 7-15, FIGS. 14A-B
Experimental: Mice were maintained in pathogen-free conditions in a temperature-controlled environment with 12/12 hour light/dark cycles and received food and water ad libitum. Female C57BL/6J mice (Charles River Laboratories, Saint-Germain sur l'Arbresle, France) were inoculated with B16BL6 or MC38 or Panc02 cells, at the age of 8 weeks, using a 30G insulin syringe, in 50 μl suspension, on the shaved flank of briefly sedated mice (using 4% isoflurane). B16BL6 cells are a murine melanoma cell line that are typically used as a model for human skin cancers with increased resistance to doxorubicin. MC38 cells are derived from a murine colon adenocarcinoma and are typically used as a model for human colon cancers. Panc02 cells are derived from a murine pancreatic ductal adenocarcinoma and are typically used as a model for human pancreatic cancers.
All tumor treatments were done perilesionally (p.l.), which is s.c. at the tumor border, starting at day 7 after tumor inoculation. Mice received FAP-AFN or FAP-WTmIFN treatments on days 7, 8, 9, 10, 12, 13, 14 and 15. Control mice were treated with PBS on the same days. FAP-AFN or FAP-VVTmIFN were given about […] (1.8 mg/kg). […]

COc1cccc2c1C(=O)c1c(O)c3c(c(O)c1C2=O)C[C@@](O)(C(=O)CO)C[C@@H]3O[C@H]1C[C@H](N)[C@H](O)[C@H](C)O1 [doxorubicin]
tumor growth: tumor stasis at best, but no tumor regression
